Data on 11 molecules can be found in US20160177324A1, “NOVEL PROTEIN AND GENE RELATED TO FLAVONOID O-METHYLTRANSFERASE (FOMT) AND THEIR USES THEREFORE” (INSTITUTE OF BOTANY, THE CHINESE ACADEMY OF SCIENCES, priority 2013, published 2016).

Broadly, the Km is the concentration of substrate that gives half-maximal velocity.

The subject of assay [1] is PsFOMT. Briefly: In vitro enzyme assay and kinetics of recombinant PsFOMT with flavonoid substrates. The assay is classed as biochemical, Paeonia suffruticosa cv. 'Gunpohden'. Further details: key: —: no product detected. The conditions noted are these: purified recombinant PsFOMT, 200 μM SAM, 1 mM MgCl2, pH 7.5, 35° C., substrate 5 to 200 μM, means (SE) of triplicate assays.

The test system of assay [2] is PsFOMT. Described as above. The assay is classed as biochemical, Paeonia suffruticosa cv. 'Gunpohden'. Further details: key to Vmax / Kcat × 10 / Kcat/Km / Specific Activity: —: no product detected. The conditions noted are these: for Kcat × 10 / Kcat/Km / Specific Activity / Vmax: purified recombinant PsFOMT, 200 μM SAM, 1 mM MgCl2, pH 7.5, 35° C., means (SE) of triplicate assays; for catalytical efficiency of PsFOMT fusion protein for substrate / methylation of substrate by PsFOMT: in the presence of SAM. The source says: Full length FOMTs were amplified by primers SEQ No.7 & 8 in which restriction enzyme NdeI and BamHI site were introduced to the 5'-end and 3'-end, respectively. The DNA fragment of interest was ligated into the […]3 vector, and then the recombinant plasmid was transducted into DH5a. The FOMT cDNAs were sequenced to verify that no mutation occurred. The recombinant plasmid was isolated and digested with Ndel and BamHI. Subsequently, the fragment was ligated to the NdeI and BamHI excised expression vector pMAL-[…] with a MBP tag to yield pMAL-PsFOMT and pMAL-PtFOMT (FIG. 3). The correct construction tested by sequencing was introduced into E. coli strain BL21. E. coli harboring pMAL-PsFOMT and pMAL-PtFOMT were cultivated in 2 mL LB liquid medium containing glucose, supplemented by 100 μg/mL ampicillin until OD600 reached 0.4-0.5. After addition of isopropyl β-D-thiogalactopyranoside (IPTG) to a final concentration of 0.1 mM, the cells were further cultured at 16° C. for 20 h. Harvest the cells by centrifugation and discard the supernatant. The cells were resuspended in column buffer (20 mM Tris-HCl, 200 mM NaCl 1 mM EDTA, 10 mM β-mercaptoethanol, pH 7.4), and disrupted by sonication in an ice-water bath (Lan, T., et al., Extensive functional diversification of the Populus glutathione S-transferase supergene family. Plant Cell, 2009. 21(12): p. 3749-3766.). In each case, the homogenate was then subjected to centrifugation at 10,000 g for 10 min at 4° C. The resultant particulate material and a small portion of the supernatant were analyzed by SDS-PAGE. The rest of the supernatant was loaded onto an amylose resin column (NEB) that had been pre-equilibrated with column buffer. The overexpressed fusion protein bound to the column was eluted with column buffer plus 10 mM maltose. The concentration of purified fusion protein was detected by UV absorbance at 280 nm. As a control, BL21 cells transformed with an empty pMAL-[…] vector were assayed. The purified protein was stored at -80° C. mixed with 10% glycerol. The reaction system was according to Hugueney et al. with some modification (Hugueney, P., et al., A novel cation-dependent O-methyltransferase involved in anthocyanin methylation in grapevine. Plant Physiology, 2009. 150(4): p. 2057-2070.). Purified recombinant FOMT (2 μg) was assayed in a final volume of 200 μL containing 200 μM SAM, 1 mM MgCl2, 14 mM β-mercaptoethanol, 100 mM Tris, pH 7.5, and 20 μM flavonoid substrates. Incubation was performed at 35° C. and stopped with 200 μL methanol containing 2% formic acid. […] Reaction product was analyzed by a Dionex HPLC system (Sunnyvale, Calif.), equipped with a P680 HPLC pump, an UltiMate 3000 autosampler, a TCC-100 thermostated column compartment and a Dionex PDA100 photodiode array detector. The analytical column was C18 column of ODS 80Ts QA (150 mm×4.6 mm, 5 μm i.d., Tosoh, Tokyo) protected with a C18 guard cartridge (Shanghai ANPEL Scientific Instrument, Shanghai). The following solvent and gradient were used: A, 10% aqueous formic acid; B, methanol; constant gradient from 10 to 36% B within 15 min and back to 10% B in 3 min; the flow rate was 0.8 mL min^-1; Column temperature was maintained at 35° C.; 20 μL of analyte was injected. Chromatograms were obtained at 525 nm for anthocyanins and 350 nm for other flavonoids, and photodiode array spectra were recorded from 200 to 800 nm. Km and Vmax values were calculated from Lineweaver-Burk plots.

The test system of the next assay is PtFOMT. Put plainly: In vitro enzymatic activity of recombinant PtFOMT with potential substrates. The assay is classed as biochemical, Paeonia tenuifolia. The following applies: purified recombinant PtFOMT; means ± SE of triplicate assays. The source says: Full length FOMTs were amplified by primers SEQ No.7 & 8 in which restriction enzyme NdeI and BamHI site were introduced to the 5′-end and 3′-end, respectively. The DNA fragment of interest was ligated into the pEASY-T3 vector, and then the recombinant plasmid was transducted into DH5a. The FOMT cDNAs were sequenced to verify that no mutation occurred. The recombinant plasmid was isolated and digested with Ndel and BamHI. Subsequently, the fragment was ligated to the NdeI and BamHI excised expression vector pMAL-c5X with a MBP tag to yield pMAL-PsFOMT and pMAL-PtFOMT (FIG. 3). The correct construction tested by sequencing was introduced into E. coli strain BL21. E. coli harboring pMAL-PsFOMT and pMAL-PtFOMT were cultivated in 2 mL LB liquid medium containing glucose, supplemented by 100 μg/mL ampicillin until OD600 reached 0.4-0.5. After addition of isopropyl β-D-thiogalactopyranoside (IPTG) to a final concentration of 0.1 mM, the cells were further cultured at 16° C. for 20 h. Harvest the cells by centrifugation and discard the supernatant. The cells were resuspended in column buffer (20 mM Tris-HCl, 200 mM NaCl 1 mM EDTA, 10 mM β-mercaptoethanol, pH 7.4), and disrupted by sonication in an ice-water bath (Lan, T., et al., Extensive functional diversification of the Populus glutathione S-transferase supergene family. Plant Cell, 2009. 21(12): p. 3749-3766.). In each case, the homogenate was then subjected to centrifugation at 10,000 g for 10 min at 4° C. The resultant particulate material and a small portion of the supernatant were analyzed by SDS-PAGE. The rest of the supernatant was loaded onto an amylose resin column (NEB) that had been pre-equilibrated with column buffer. The overexpressed fusion protein bound to the column was eluted with column buffer plus 10 mM maltose. The concentration of purified fusion protein was detected by UV absorbance at 280 nm. As a control, BL21 cells transformed with an empty pMAL-c5X vector were assayed. The purified protein was stored at −80° C. mixed with 10% glycerol.
The reaction system was according to Hugueney et al. with some modification (Hugueney, P., et al., A novel cation-dependent O-methyltransferase involved in anthocyanin methylation in grapevine. Plant Physiology, 2009. 150(4): p. 2057-2070.). Purified recombinant FOMT (2 μg) was assayed in a final volume of 200 μL containing 200 μM SAM, 1 mM MgCl2, 14 mM β-mercaptoethanol, 100 mM Tris, pH 7.5, and 20 μM flavonoid substrates. Incubation was performed at 35° C. and stopped with 200 μL methanol containing 2% formic acid. For enzyme kinetic studies, purified FOMT was incubated based on the above condition with the exception that a range of substrate concentrations from 5 to 200 μM were used for Km determination. Reaction product was analyzed by a Dionex HPLC system (Sunnyvale, Calif.), equipped with a P680 HPLC pump, an UltiMate 3000 autosampler, a TCC-100 thermostated column compartment and a Dionex PDA100 photodiode array detector. The analytical column was C18 column of ODS 80Ts QA (150 mm×4.6 mm, 5 μm i.d., Tosoh, Tokyo) protected with a C18 guard cartridge (Shanghai ANPEL Scientific Instrument, Shanghai). […] Chromatograms were obtained at 525 nm for anthocyanins and 350 nm for other flavonoids, and photodiode array spectra were recorded from 200 to 800 nm. Km and Vmax values were calculated from Lineweaver-Burk plots.

Read-outs that look alike come from different tables or passages of the source.

For the molecule `O=C(O)/C=C/c1ccc(O)c(O)c1` [Caffeic acid], the Km entry with PsFOMT [1] was “—”. Besides, in the assay on PsFOMT [2], the “Kcat × 10” value is given as “—”, the Kcat/Km entry is recorded as “—”, the “Specific Activity” value was “—” and the Vmax entry is on record as “—”.

In the case of `OC[C@H]1O[C@@H](Oc2cc3c(O[C@@H]4O[C@H](CO)[C@@H](O)[C@H](O)[C@H]4O)cc(O)cc3[o+]c2-c2ccc(O)c(O)c2)[C@H](O)[C@@H](O)[C@@H]1O` [Cyanidin 3,5-di-O-glucoside], in the assay with PsFOMT [1] (read-out: Km), the Km is 1.06 µM. Besides, in the assay with PtFOMT, the Specific Activity is listed as 29.60 ± 3.47 pkat mg^−1. Moreover, in the assay on PsFOMT [2], the “catalytical efficiency of PsFOMT fusion protein for substrate” value is listed as “high catalytical efficiency”, the “Kcat × 10” value is on record as 127.70 (1.05) s^−1, the “Specific Activity” value is reported as 1788 (15) pkat mg^−1 and the Vmax was 17.88 (0.25) nM s^−1.

For the molecule `OC[C@H]1O[C@@H](Oc2cc3c(O)cc(O)cc3[o+]c2-c2ccc(O)c(O)c2)[C@H](O)[C@@H](O)[C@H]1O` [Cyanidin 3-O-galactoside], in the assay on PsFOMT [1] (read-out: Km), the Km worked out at 31.7 µM. Moreover, in the assay on PsFOMT [2], the “methylation of substrate by PsFOMT” value was “can be methylated”, the “Kcat × 10” value is recorded as 217.90 (36.48) s^−1, the “Specific Activity” value is 3138 (525) pkat mg^−1 and the Vmax is given as 39.22 (6.57) nM s^−1.

As for `OC[C@H]1O[C@@H](Oc2cc3c(O)cc(O)cc3[o+]c2-c2ccc(O)c(O)c2)[C@H](O)[C@@H](O)[C@@H]1O` [Cyanidin 3-O-glucoside], the Km in the assay on PsFOMT [1] (read-out: Km) stood at 1.76 µM. For the same molecule, the Specific Activity in the assay on PtFOMT is given as 37.98 ± 1.05 pkat mg^−1. For the same molecule, in the assay on PsFOMT [2], the “catalytical efficiency of PsFOMT fusion protein for substrate” value is given as “high catalytical efficiency”, the “Kcat × 10” value is reported as 161.99 (0.73) s^−1, the “Specific Activity” value is listed as 2314 (11) pkat mg^−1 and the Vmax is listed as 11.57 (0.05) nM s^−1.

Consider `OC[C@H]1O[C@@H](Oc2cc3c(O)cc(O)cc3[o+]c2-c2cc(O)c(O)c(O)c2)[C@H](O)[C@@H](O)[C@@H]1O` [Delphinidin 3-O-glucoside], for which the Michaelis constant (Km) in the assay with PsFOMT [1] (read-out: Km) was 4.11 µM. Moreover, the Specific Activity in the assay on PtFOMT is on record as 21.50 ± 0.10 pkat mg^−1. In the assay with PsFOMT [2], the “methylation of substrate by PsFOMT” value is “sequentially methylate 3′- and 5′-OH at B ring”; the “Kcat × 10” value is given as 94.72 (1.49) s^−1; the “Specific Activity” value is 1364 (21) pkat mg^−1; the Vmax is given as 17.05 (0.27) nM s^−1.

As to `O=c1c(O)c(-c2ccc(O)cc2)oc2cc(O)cc(O)c12` [Kaempferol], the Km entry in the assay with PsFOMT [1] was “—”. In addition, in the assay with PsFOMT [2], the “Kcat × 10” value was “—”, the Kcat/Km entry is recorded as “—”, the “Specific Activity” value is recorded as “—” and the Vmax result is “—”.

With `O=c1cc(-c2ccc(O)c(O)c2)oc2cc(O)cc(O)c12` [Luteolin], the Km result in the assay with PsFOMT [1] is reported as “—”. In the assay with PsFOMT [2], the “Kcat × 10” value was “—”, the Kcat/Km result is recorded as “—”, the “Specific Activity” value is reported as “—” and the Vmax entry was “—”.

As to `O=C1C[C@@H](c2ccc(O)cc2)Oc2cc(O)cc(O)c21` [Naringenin], in the assay with PsFOMT [1], the Km result is listed as “—”. Moreover, in the assay on PsFOMT [2], the “Kcat × 10” value is recorded as “—”, the Kcat/Km result is on record as “—”, the “Specific Activity” value is “—” and the Vmax entry is reported as “—”.

In the case of `OC[C@H]1O[C@@H](Oc2cc3c(O)cc(O)cc3[o+]c2-c2ccc(O)cc2)[C@H](O)[C@@H](O)[C@@H]1O` [Pelargonidin 3-O-glucoside], the Km result in the assay with PsFOMT [1] is recorded as “—”. In the assay on PsFOMT [2], the “Kcat × 10” value is recorded as “—”, the Kcat/Km entry was “—”, the “Specific Activity” value is recorded as “—” and the Vmax entry is reported as “—”.

In the case of `C[C@@H]1O[C@@H](OC[C@H]2O[C@@H](Oc3c(-c4ccc(O)c(O)c4)oc4cc(O)cc(O)c4c3=O)[C@H](O)[C@@H](O)[C@@H]2O)[C@H](O)[C@H](O)[C@H]1O` [Quercetin 3-O-rutinoside], the Km in the assay on PsFOMT [1] (read-out: Km) was 12.3 µM. For the same molecule, the Specific Activity in the assay on PtFOMT is given as 30.20 ± 0.24 pkat mg^−1. Moreover, in the assay with PsFOMT [2], the “methylation of substrate by PsFOMT” value was “can be methylated”, the “Kcat × 10” value is given as 192.11 (4.41) s^−1, the “Specific Activity” value was 2744 (135) pkat mg^−1 and the Vmax was 27.44 (1.63) nM s^−1.

As for `O=c1c(O)c(-c2ccc(O)c(O)c2)oc2cc(O)cc(O)c12` [Quercetin], the Km with PsFOMT [1] (read-out: Km) came to 4.33 µM. Further, the Specific Activity in the assay with PtFOMT was 17.58 ± 0.57 pkat mg^−1. In the assay on PsFOMT [2], the “methylation of substrate by PsFOMT” value was “can be methylated”, the “Kcat × 10” value is on record as 9.83 (0.12) s^−1, the “Specific Activity” value is 142 (2) pkat mg^−1 and the Vmax is given as 1.77 (0.02) nM s^−1.
